Experimental data taken from patent US20140193455A1, “PHARMACEUTICAL COMPOSITION FOR PREVENTION OR TREATMENT OF STEROID-INDUCED DIABETES AND HEALTH FUNCTIONAL FOOD” (priority 2013, published 2014).

System: INS-1 cells
Assay: Cell counting analysis (trypan blue) of living INS-1 cells
Type: cell-based, rat
Settings: for decrease in INS-1 cell survival compared to the control: FIG. 4; for decrease in survival of INS-1 cells compared to control: treated alone
Method: The rat insulin-secreting cell line INS-1 was maintained in RPMI-1640 medium containing 10% heat-inactivated FBS (fetal bovine serum), 100 units/ml of penicillin and 100 μg/ml of streptomycin at 37° C. under the conditions of 95% humidity and 5% CO2.
One day before treatment with reagent or CLCE, INS-1 cells were cultured in a 24-well plate at a concentration of 1×10^5 cells/well in a volume of 500 μL. The INS-1 cells were treated with the indicated concentrations of reagent (Dex, LY294002, IL-1β, STZ, TG or TN) and/or CLCE for the indicated time. At each point of time, the cells were stained with trypan blue dye, and the living INS-1 cells were counted under a microscope. The cell counting was repeated three times. Data were expressed as the mean of three independent experiments.

Row | Compound | decrease in INS-1 cell survival compared to the control (treated alone for 24 hours) | decrease in survival of INS-1 cells compared to control (FIG. 3) | also measured
1 | CN(N=O)C(=O)N[C@H]1C(O)O[C@H](CO)[C@@H](O)[C@@H]1O (mixture of isomers) [STZ, streptozotocin] | ~82% |  | 
2 | tunicamycin [TN] | ~50% |  | 
3 | C[C@@H]1C[C@H]2[C@@H]3CCC4=CC(=O)C=C[C@]4(C)[C@@]3(F)[C@@H](O)C[C@]2(C)[C@@]1(O)C(=O)CO [Dex, dexamethasone] |  | about 55% | decrease in survival rate of INS-1 cells (treated alone for 24 hours, FIG. 1A): about 50%
4 | interleukin-1β [IL-1β] | about 45% |  | 
5 | C/C=C(/C)C(=O)O[C@H]1C(C)=C2[C@H]([C@@H]1OC(=O)CCCCCCC)[C@@](C)(OC(C)=O)C[C@H](OC(=O)CCC)[C@@]1(O)[C@H]2OC(=O)[C@@]1(C)O [TG, thapsigargin] | ~88% |  | 
6 | O=c1cc(N2CCOCC2)oc2c(-c3ccccc3)cccc12 [LY294002] |  | about 24% | degree of the decrease in survival of INS-1 cells (combination of Dex and LY294002, FIG. 3): 75%
